Results on two compounds are retold here after patent US12115209B2, “ROMO1-derived antimicrobial peptides including lysine substitution and variants thereof” (KOREA UNIVERSITY RESEARCH AND BUSINESS FOUNDATION, priority 2019, dated 2024).

Non-standard residues stand in square brackets, D forms with d. Residues, ends and D or L forms follow the SMILES beside them. No end group written: not given here.

What all share (assay type): cell-based
One data set relates to mouse red blood cells. The method, then: Red blood cells were diluted with PBS, centrifuged 3 times at 900 g for 10 minutes, and washed. 100 μl of the diluted red blood cell solution (10% v/v PBS) was dispensed into each well of a 96-well microplate, and KU-5878, KU-5878-K4, KU-5878-K4-D, melittin, magainin 2 or daptomycin was added to each well which was then filled with PBS to 200 μl, followed by reaction by incubation at 37° C. for 1 hour. Then, the supernatant of the reaction solution was separated, and the absorbance at a wavelength of 550 nm was measured using a spectrophotometer. As control, PBS and 0.1% Triton X-100 (Triton X-100) solution were used.
Based on the results of measurement of the absorbance, the degree of red blood cell destruction was calculated according to Equation 1 below, and the results of the calculation are shown in FIG. 6. % The intact RBC=100(%)−[(absorbance of peptide-treated red blood cell solution−absorbance of PBS-treated red blood cell solution)/(absorbance of Triton X-100-treated red blood cell solution−absorbance of PBS-treated red blood cell solution)×100(%)] [Equation 1]

The test system of data set [1] is Enterobacter aerogenes (ATCC 13048). To be noted: ATCC 13048, 4 h. The method, then:
(§1) Specifically, each type of bacteria was cultured in 3% (w/v) TSB (tryptic soy broth) liquid medium at 37° C. and 200 rpm for 4 hours, and then further cultured under the same conditions for 3 hours to a concentration of 5×10^6 CFU/ml. Strain solutions were prepared by diluting each of the further cultured strains with SP buffer to a final concentration of 2×10^5 CFU/ml.
(§2) Then, the KU-5878 peptide at varying concentrations (0 μg/ml to 300 μg/ml) was dispensed into each well of a 96-well microplate, and 100 μl (1×10^5 CFU/ml) of each of the prepared strain solutions was added thereto, mixed therewith, and allowed to react with the peptide in an incubator at 37° C. for 1 hour.
(§3) In addition, 10 μl of each reaction solution of the peptide and the strain was plated on the TS agar plate at a constant size, and incubated in an incubator at 37° C. for 18 hours, and then colony formation on the plate was checked. The minimum bactericidal concentration was defined as the minimum concentration of the peptide at which no colony was formed, and the experimental results are shown in Table 2 below.

In data set [2] the test system is Enterococcus faecalis (ATCC 19433). Conditions: ATCC 19433, 4 h. The method, then: as §1, §2, §3
Data set [3] concerns Acinetobacter baumannii (ATCC 19606). Conditions: ATCC 19606, 4 h. The method, then:
as §1, §2, §3

Data set [4] concerns Klebsiella pneumoniae (ATCC 13883). To be noted: ATCC 13883, 4 h. The method, then:
as §1, §2, §3

The test system of data set [5] is Streptomyces sindenensis (ATCC 12392). To be noted: ATCC 12392, 4 h. The method, then: as §1, §2, §3
The subject of data set [6] is Bacillus subtilis (ATCC 6633). To be noted: ATCC 6633, 4 h. The method, then: as §1, §2, §3
The subject of data set [7] is Escherichia coli (ATCC 25922). Conditions: ATCC 25922, 4 h. The method, then:
as §1, §2, §3

Data set [8] deals with Enterococcus faecium (ATCC 19434). Conditions: ATCC 19434, 4 h. The method, then:
as §1, §2, §3

In the case of `CC[C@H](C)[C@H](NC(=O)CNC(=O)[C@H](CCSC)NC(=O)CNC(=O)[C@@H](NC(=O)[C@H](C)NC(=O)[C@H](CCSC)NC(=O)[C@H](Cc1ccccc1)NC(=O)[C@@H](NC(=O)CNC(=O)[C@H](Cc1ccccc1)NC(=O)[C@@H](CCCCN)NC(=O)CNC(=O)CNC(=O)[C@@H](CCCCN)NC(=O)[C@@H](CCCCN)NC(=O)[C@H](CCSC)NC(=O)[C@H](CCSC)NC(=O)[C@@H](CCCCN)NC(=O)[C@@H](N)CCCCN)[C@@H](C)O)[C@@H](C)CC)C(=O)N[C@@H](CCCNC(=N)N)C(=O)O` [KU-5878-K4-D] (H-K[dK]MM[dK][dK]GG[dK]FGTFMAIGMGIR-OH), the “hemolysis of red blood cells” value in the data set with mouse red blood cells was “little hemolysis”.

In the case of KKMMKKGGKFGTFMAIGMGIR [KU-5878-K4], the “MBC value” was determined as 5 µg/mL in data set [1]; 5 µg/mL in data set [2]; 4 µg/mL in data set [3]; 5 µg/mL in [4]; 5 µg/mL in data set [5]; 5 µg/mL in data set [6]. The “MBC value” in [7] and in data set [8] was 5 µg/mL in each case. For the same compound, the “hemolysis of red blood cells” value in the data set on mouse red blood cells is recorded as “little hemolysis”.
